# In the NIST ThermoML archive (doi:10.1021/je0301747):
# Numbers after ± are expanded uncertainties.
# How the values were obtained:
# [1] = Liquid
# [2] = molar enthalpy of vaporization or sublimation; conditions: 298.15 K; Liquid
vapor or sublimation pressure ([1]; 298.15 K) [kPa],vapor or sublimation pressure ([1]; 328.15 K) [kPa],vapor or sublimation pressure ([1]; 358.15 K) [kPa],vapor or sublimation pressure ([1]; 388.15 K) [kPa],vapor or sublimation pressure ([1]; 418.15 K) [kPa],vapor or sublimation pressure ([1]; 448.15 K) [kPa],vapor or sublimation pressure ([1]; 478.15 K) [kPa],vapor or sublimation pressure ([1]; 508.15 K) [kPa],vapor or sublimation pressure ([1]; 538.15 K) [kPa],vapor or sublimation pressure ([1]; 568.15 K) [kPa],vapor or sublimation pressure ([1]; 575.15 K) [kPa],molar enthalpy [2] [kcal/mol],SMILES
2.148e-07 ± 4e-07,1.218e-05 ± 5.5e-06,0.0002988 ± 8.8e-05,0.003922 ± 0.00095,0.032 ± 0.007,0.1809 ± 0.038,0.7674 ± 0.16,2.593 ± 0.53,7.298 ± 1.5,17.71 ± 3.6,21.39 ± 4.3,26.7 ± 1.89,CCCCCCCCCCCCCCCCCCCCCC [docosane]
1.127e-09,1.502e-07 ± 1.2e-07,7.253e-06 ± 2.8e-06,0.0001636 ± 3.8e-05,0.002067 ± 0.00034,0.01669 ± 0.0023,0.09492 ± 0.012,0.4089 ± 0.046,1.409 ± 0.15,4.056 ± 0.43,5.076 ± 0.53,32.4 ± 2.29,CCCCCCCCCCCCCCCCCCCCCCCCCCC [heptacosane]
2.809e-09,3.247e-07 ± 2.4e-07,1.401e-05 ± 5.6e-06,0.0002888 ± 8.1e-05,0.003393 ± 0.0008,0.02583 ± 0.0056,0.14 ± 0.029,0.5797 ± 0.12,1.934 ± 0.4,5.417 ± 1.1,6.742 ± 1.4,31.5 ± 2.22,CCCCCCCCCCCCCCCCCCCCCCCCCC [hexacosane]
8.145e-09,7.894e-07 ± 5.2e-07,2.963e-05 ± 1.1e-05,0.0005462 ± 0.00015,0.005863 ± 0.0014,0.04146 ± 0.009,0.2114 ± 0.044,0.8322 ± 0.17,2.661 ± 0.54,7.192 ± 1.5,8.882 ± 1.8,30.3 ± 2.03,CCCCCCCCCCCCCCCCCCCCCCCCC [pentacosane]
2.373e-08,1.931e-06 ± 1.1e-06,6.308e-05 ± 2.1e-05,0.001041 ± 0.00027,0.01022 ± 0.0023,0.06716 ± 0.014,0.3225 ± 0.067,1.208 ± 0.25,3.705 ± 0.75,9.668 ± 2,11.85 ± 2.4,29.1 ± 1.96,CCCCCCCCCCCCCCCCCCCCCCCC [tetracosane]
7.059e-08,4.801e-06 ± 2.5e-06,0.0001361 ± 4.3e-05,0.002006 ± 0.0005,0.01797 ± 0.004,0.1096 ± 0.023,0.4952 ± 0.1,1.763 ± 0.36,5.183 ± 1.1,13.05 ± 2.6,15.88 ± 3.2,28 ± 1.96,CCCCCCCCCCCCCCCCCCCCCCC [tricosane]

# Continued, molecule first:
SMILES,vapor or sublimation pressure ([1]; 298.15 K) [kPa],vapor or sublimation pressure ([1]; 328.15 K) [kPa],vapor or sublimation pressure ([1]; 358.15 K) [kPa],vapor or sublimation pressure ([1]; 388.15 K) [kPa],vapor or sublimation pressure ([1]; 418.15 K) [kPa],vapor or sublimation pressure ([1]; 448.15 K) [kPa],vapor or sublimation pressure ([1]; 478.15 K) [kPa],vapor or sublimation pressure ([1]; 508.15 K) [kPa],vapor or sublimation pressure ([1]; 538.15 K) [kPa],vapor or sublimation pressure ([1]; 568.15 K) [kPa],vapor or sublimation pressure ([1]; 575.15 K) [kPa],molar enthalpy [2] [kcal/mol]
CCCCCCCCCCCCCCCCCCCCC [heneicosane],6.69e-07,3.15e-05 ± 2.3e-05,0.0006673 ± 0.00029,0.007785 ± 0.0025,0.05774 ± 0.015,0.3019 ± 0.071,1.201 ± 0.27,3.849 ± 0.83,10.36 ± 2.2,24.22 ± 5,29.02 ± 6,25.5 ± 1.74
CCCCCCCCCCCCCCCCCCCCCCCCCCCCC [nonacosane],1.018e-10,2.044e-08 ± 2.3e-08,1.365e-06 ± 6.8e-07,3.99e-05 ± 1.1e-05,0.0006219 ± 0.00012,0.005963 ± 0.00088,0.0391 ± 0.005,0.1897 ± 0.022,0.7225 ± 0.08,2.264 ± 0.24,2.884 ± 0.3,35.2 ± 3.59
CCCCCCCCCCCCCCCCCCCCCCCCCCCC [octacosane],3.173e-10,5.263e-08 ± 5.1e-08,3.022e-06 ± 1.4e-06,7.829e-05 ± 2.4e-05,0.001107 ± 0.00027,0.009795 ± 0.0022,0.06012 ± 0.013,0.276 ± 0.057,1.004 ± 0.21,3.025 ± 0.62,3.823 ± 0.77,33.9 ± 3.35
CCCCCCCCCCCCCCCCCCCCCCCCCCCCCC [triacontane],3.317e-11,8.03e-09 ± 1e-08,6.217e-07 ± 3.6e-07,2.045e-05 ± 7.1e-06,0.0003508 ± 9.2e-05,0.003636 ± 0.00084,0.02543 ± 0.0055,0.1301 ± 0.027,0.5185 ± 0.11,1.687 ± 0.34,2.167 ± 0.44,36.4 ± 3.82
